Assay results as given in patent publication US11345659B2, “Pipecolic esters for inhibition of the proteasome” (THE BOARD OF REGENTS OF THE UNIVERSY OF TEXAS SYSTEM, priority 2018, dated 2022).

Columns and labels:
[1] = test system: human prostate cancer PC3 cells; assay: Efficacy study in nude mice xenografted with PC3 cells; assay type: in vivo; conditions: 10 mg/kg intra-tumorally
Procedure: The efficacy study was performed with mice xenografted with human cultured androgen-resistant prostate cancer PC3 cells. To assure efficient monitoring of tumor growth and dissemination, the cells expressing green fluorescent protein (GFP) and luciferine were used for xenografting (Bioware Brite PC3-RedFLuc-GFP). The study involved […] nude mice. Tumor-growing mice were treated intra-tumorally (IT) with the vehicle (dimethylsulfoxide; DMSO; 8 control mice) or with 10 mg/kg of compound 3 (10 mice). Injections were carried on Mondays, Wednesdays, and Fridays. To assure accurate assessment of the tumor size, at the time of first and last treatments the mice were injected with luciferine (substrate for luciferase) and the total intensity of fluorescent product was recorded by the Xenogen IVIS Spectrum small animal imager. […] The color scale from blue (lowest) through green, yellow and red (highest) corresponds to the intensity of fluorescence emitted from the tumor and thus represents the total mass of live cancer cells. Referring to FIG. 8 right panel, median ratios of last-to-first total tumor fluorescence values are shown. Apparently, the median tumor size in controls increased nearly three-fold (ratio=3.05), whereas in the treated cohort a tumor shrinkage was recorded instead (ratio=0.62).

[2] = target: T1, native human 20 S core proteasome (Homo sapiens, UniProt P25787+P25789); assay: AFM imaging of gate conformers of 20 S proteasome
T1 construct: purified from erythrocytes; purchased Enzo Life Sciences, Inc. (Farmingdale, N.Y.); host or cells: human erythrocytes
Procedure: The single molecule imaging of the 20 S proteasome was carried out as previously described, with a scanner E of the Multimode Nanoscope IIIa (Bruker Inc) (Gaczynska and Osmulski (2009) Atomic Force Microscopy as a Tool to Study the Proteasome Assemblies; Osmulski et al. (2009) Structure 17(8): 1137-1147. Available from http://www.scopus.com/inward/record.url?eid=2-s2.0-68149164657&partnerID=40&md5=dc5e413998472b20d822db9458de1955). In short, the proteasomes were deposited and electrostatically attached to a muscovite mica substrate, covered with imaging buffer (5 mM Tris/HCl, pH 7) and scanned in tapping mode in fluid using cantilevers with the spring constant of 0.35 N/m from the SNL (Sharp Nitride Lever) probes (Bruker Inc.) tuned to 9-10 kHz. Gentle scanning conditions with the amplitude setpoint in the range of 1.5-2.0V, drive voltage of 300-500 mV and 3.05 Hz scanning rate were used. Scans of 1 μm^2 fields (512×512 pixels) contained height-mode images of several dozens of top-view (“standing”) 20 S proteasome molecules. The gate status was deduced from a profile of raw height values of pixels measured by a probe scanning across the single proteasome particles. The proteasome a face that included the gate was completely rendered by a six-pixel (11-12 nm) scan-line. If the α face scan-line presented a central dip (a local minimum), the particle was classified as containing the open gate. If a plot of height values presented a concave function without a local minimum, the particle was classified as an intermediate conformer. If the function was convex, the particle was classified as containing the closed gate. The “events” of gate opening/closing were analyzed for scans of distinct particles as well as multiple scans of the same particles.
Next, AFM imaging of the native human 20 S core proteasome treated with 10 μM compound 3 was performed to get insight into the putative effects of the compound on the conformation of the α face in the single molecule fashion. In the in-liquid tapping mode AFM method, the outer shape of the α face is monitored by the ultra-sharp probe interacting […] with the protein molecule mostly by van der Waals forces (Gaczynska and Osmulski (2008) Methods Cell Biol. 90: 39-60). […] Treatment with 10 μM of rapamycin shifted the conformational equilibrium of the 20 S core from about 75% to about 50% of closed-gate molecules (Osmulski and Gaczynska (2013) Molecular pharmacology 84: 104-113). An apparent similar shift was induced by compound 3, when the partition of closed conformers dropped from 73±1% (n=4 experiments, 90 events of gate opening/closing) to 45±11% (n=6 experiments, 218 events). Moreover, upon additional refined analysis of “not closed” conformers, it was possible to distinguish the presumably open-gate forms from intermediate forms.
The putative binding site of compound 3 in the α ring pocket, identified by molecular modeling (FIG. 2) and biochemical data (FIG. 4), led to the examination of whether the inhibitor-induced conformational changes in a face gate dynamics. For this purpose, imaging of native 20 S proteasomes was employed using a previously established method of atomic force microscopy (AFM). In this method, topography of the α face of buffer-submerged proteasomes that stand on their opposite a face is rendered in real time by the ultra-sharp probe. A tip of the probe interacts with the molecules mostly by van der Waals forces (Gaczynska and Osmulski (2011) Methods Mol. Biol. 736: 117-32). The distribution of conformation types of a face is routinely accessed with sequential scans of fields of multiply randomly distributed proteasomes. Alternatively, consecutive single scan lines representing the gate status of individual particles are collected. The particles are classified as closed-gate if their a face is smooth and regularly concave (FIG. 5). […]

[3] = target: T2, 20 S human housekeeping proteasome (Homo sapiens, UniProt P25787+P25789); assay: ChT-L peptidase activity of 20 S proteasome activated with Rpt5 peptide; assay type: biochemical; conditions: tRpt5 added last (compound 3 before tRpt5), n=3
T2 construct: purified from erythrocytes; purchased Enzo Life Sciences, Inc. (Farmingdale, N.Y.); host or cells: human erythrocytes

Question: For `COc1cc(CCCOC(=O)[C@@H]2CCCCN2C(=O)OCc2ccccc2)cc(OC)c1OC` [Compound 3, 1-benzyl 2-(3-(3,4,5-trimethoxyphenyl)propyl) (S)-piperidine-1,2-dicarboxylate], which “growth of xenografted tumor” value [1] is on record?
Answer: attenuated the growth of xenografted tumor

Question: What about the “median ratio of last-to-first total tumor fluorescence” value ([1]; Mon/Wed/Fri, control ratio 3.05) of the same molecule?
Answer: 0.62

Question: And the “abundance of gate conformers” value ([2]; 100 nM)?
Answer: increased the abundance of closed-gate conformers and rendered the open-gate forms nearly undetectable

Question: What about the “contribution of open-gate proteasomes” value ([2]; 1 μM) of the same molecule?
Answer: only about a half of that observed in the control particles

Question: What about the “particles in closed-gate conformation” value ([2]; 10 μM) of the same molecule?
Answer: less than a half of the particles were in the closed-gate conformation

Question: What about the “contribution of open-gate and intermediate forms” value ([2]; 10 μM, compared to control) of the same molecule?
Answer: increased about twice

Question: And the “partition of closed conformers” value ([2]; 10 μM, n=6 experiments, 218 events, control 73±1%)?
Answer: 45±11%

Question: And the “number of intermediate forms” value ([2]; 10 μM, versus control)?
Answer: increased significantly

Question: And the “partition of open forms” value ([2]; 10 μM, versus control)?
Answer: remained remarkably steady

Question: What about the “remaining ChT-L activity” value [3] of the same molecule?
Answer: 56%
